Test results published in patent publication US5250563A, “Inhibitors of HIV protease” (Merck & Co., Inc., priority 1992, dated 1993).

The compounds below were run against T1, HIV protease (Human immunodeficiency virus type 1 group M subtype B, UniProt P04585) (assay: peptide cleavage assay (HIV protease assay)). Settings: not given.
Type: biochemical
For `C=C1C(C)C2C(Cc3ccccc3)NC(=O)C23C(OC(C)=O)C=CC(C)CC(C)CC=CC3C1O` (centres unmarked) [Compound 1], the IC50 was ~6.28 µM.

The compounds below were run against T1, HIV protease (assay: Assay for Inhibition of Recombinant HIV Protease (tritiated peptide substrate cleavage)). Settings: pH 5.5, 60 minutes at 37° C., HIV protease expressed in Escherichia coli, [3H]-peptide substrate.
Type: biochemical
Parameters: the HIV protease expressed in Escherichia coli; made in house; host or cells: Escherichia coli
Protocol: Assay for Inhibition of Recombinant HIV Protease
Inhibition studies were performed on the reaction of the HIV protease expressed in Escherichia coli with a tritiated peptide substrate, [^3 H]-acetyl-Val-Ser-Gln-Asn-(beta-napthyl-Ala)-Pro-Ile-Val-Gin-Gly-Arg-Arg-NH2 (MW 1800). The two arginine residues at the carboxyl terminus give this peptide an overall positive charge at acidic pH and enable it to bind to the H^+ form of DOWEX AG-50W-X8 resin and similar resins.
Aliquots of 25 μl containing 6.0-8.0 nM HIV protease in assay buffer (100 mM sodium acetate, pH 5.5 and 0.1% BSA) are placed in assay tubes. The reaction is initiated by addition of 25 μl aliquots of 4.2 μM tritiated peptide substrate in 100 mM sodium acetate, pH 5.5. After incubation for 60 minutes at 37° C., the reaction is stopped with 100 μl of 5% H3 PO4, then analysed by application of column chromatography.
For `C=C1C(C)C2C(Cc3ccccc3)NC(=O)C23C(OC(C)=O)C=CC(C)CC(C)CC=CC3C1O` (centres unmarked) [Compound 1], the IC50 was 10 µM. Work on `C=C1C(C)C2C(Cc3cccc(O)c3)NC(=O)C23C(OC(C)=O)C=CC(C)CC(CO)CC=CC3C1O` (centres unmarked) [Compound 4] yielded an IC50 of 25 µM. `C=C1C(C)C2C(Cc3ccccc3)NC(=O)C23C(OC(C)=O)C=CC(C)CC(O)(CO)CC=CC3C1O` (centres unmarked) [Compound 6] was tested, and the IC50 was > 50 µM. With `C=C1C(C)C2C(Cc3cccc(O)c3)NC(=O)C23C(OC(C)=O)C=CC(C)CC(O)(CO)CC=CC3C1O` (centres unmarked) [Compound 7] the IC50 was > 50 µM. `C=C1C(C)C2C(Cc3ccccc3)NC(=O)C23C(OC(C)=O)C=CC(C)CC(CO)CC=CC3C1O` (centres unmarked) [Compound 2] showed an IC50 of 43 µM. `C=C1C(C)C2C(Cc3ccc(O)cc3)NC(=O)C23C(OC(C)=O)C=CC(C)CC(CO)CC=CC3C1O` (centres unmarked) [Compound 3] gave an IC50 of 40 µM. For `C=C1C(C)C2C(Cc3ccc(O)c(O)c3)NC(=O)C23C(OC(C)=O)C=CC(C)CC(CO)CC=CC3C1O` (centres unmarked) [Compound 5], the IC50 was > 50 µM.
